Data reported in patent publication US20160212997A1, “AGRICULTURAL CHEMICALS” (REDAG CROP PROTECTION LTD, priority 2013, published 2016).
Like-named read-outs stand apart in the source and are kept apart here.

Columns and labels:
Format in all cases: in vivo
[1] = tested on: red spider mites, Tetranychus urticae; test: Potter tower spray on red spider mites, knockdown and mortality; settings: Spider mites
Source text: (§1) The compounds were screened for insecticidal efficacy against aphids, Myzus persicae, Cabbage moth, Mamestra brassicae, diamond black moths, Plutella xylostella, red spider mites, Tetranychus urticae, whitefly, Trialeurodes vaporariorum, in terms of knockdown and mortality.
(§2) Myzus persicae, Cabbage moth, Mamestra brassicae, diamond back moths, Plutella xylostella, red spider mites, Tetranychus urticae, whitefly, Trialeurodes vaporariorum, were obtained from specified laboratory cultures. Mixed sex and age aphids and mites, moth larvae and whitefly scale infested leaves were used in the experiments. Environmental conditions were closely monitored and recorded and were within the optimal range of the target species.
(§3) The compounds were screened at a range of five concentrations, diluted in DMSO. Some of the compounds were screened against aphids, whitefly and red spider mites and other compounds were screened against cabbage moth, and diamond black moths. A carrier only and an untreated control will also be conducted. Treatments were applied directly onto the insects within Petri dishes, using a potter tower.
(§4) Twenty mites and ten aphids, scales and moth larvae were placed within a Petri dish, lined with a suitable leaf disc on a damp cotton wool pad. Scales were already on leaves. The Petri dishes were then sprayed using a potter tower. The number of knocked down and anthropods were assessed at 24 and 48 hours post treatment. Five replicates were be performed for each treatment, for each species.

[2] = tested on: caterpillars, a mixture of Mamestra brassicae and Lacanobia oleracea; test: Potter tower spray on caterpillars, knockdown and mortality; settings: Caterpillars, read-out: Average of % corrected affected; for pest or weed control at 0.00625 % strength: 0.00625 % w/v; for pest or weed control at 0.0125 % strength: 0.0125 % w/v; for pest or weed control at 0.025 % strength: 0.025 % w/v; for pest or weed control at 0.05 % strength: 0.05 % w/v; for pest or weed control at 0.1 % strength: 0.1 % w/v
Source text: as §2, §3, §4
(§5) For Tables 2, 4, 5 and 6, the compounds were diluted in DMSO containing 1% v/v Tween 20™. For Tables 2, 4, 5 and 6, the caterpillars were a mixture of Mamestra brassicae and Lacanobia oleracea.

aphids, Myzus persicae = test: Potter tower spray on aphids, knockdown and mortality; settings: Aphids; for pest or weed control at 0.00625 % strength / pest or weed control at 0.0125 % strength / pest or weed control at 0.025 % strength / pest or weed control at 0.05 % strength / pest or weed control at 0.1 % strength: Myzus persicae, read-out: Average of % corrected affected; for pest or weed control at 0.00625 % strength: 0.00625 % w/v; for pest or weed control at 0.0125 % strength: 0.0125 % w/v; for pest or weed control at 0.025 % strength: 0.025 % w/v; for pest or weed control at 0.05 % strength: 0.05 % w/v; for pest or weed control at 0.1 % strength: 0.1 % w/v
Source text: as §1, §2, §3, §4, §5

[3] = 24 h, 24 hours post application
[4] = 48 h, 48 hours post application

Q: How did the percentage control ([1]; 25 g/ha, 24 h) turn out when `CCOC(=O)CN(Cc1ccc(Cl)nc1)C1=CC(=O)OC1` [Compound 3, Ethyl 2-[(6-chloro-3-pyridyl)methyl-(5-oxo-2H-furan-3-yl)amino]acetate] was run?
A: Its percentage control is “B (A percentage control of from 60 to 79 is indicated by the letter B)”.

Q: What about the percentage control ([1]; 25 g/ha, 48 h) of the same compound?
A: Its percentage control is “C (A percentage control of from 40 to 59 is indicated by the letter C)”.

Q: And the percentage control ([1]; 50 g/ha, 24 h)?
A: Its percentage control is “D (A percentage control of from 20 to 39 is indicated by the letter D)”.

Q: And the percentage control ([1]; 50 g/ha, 48 h)?
A: Its percentage control is “D (A percentage control of from 20 to 39 is indicated by the letter D)”.

Q: And the percentage control ([1]; 100 g/ha, 24 h)?
A: The percentage control was “C (A percentage control of from 40 to 59 is indicated by the letter C)”.

Q: What about the percentage control ([1]; 100 g/ha, 48 h) of the same compound?
A: Its percentage control is “C (A percentage control of from 40 to 59 is indicated by the letter C)”.

Q: What about the percentage control ([1]; 200 g/ha, 24 h) of the same compound?
A: Its percentage control is “D (A percentage control of from 20 to 39 is indicated by the letter D)”.

Q: What about the percentage control ([1]; 200 g/ha, 48 h) of the same compound?
A: Its percentage control is “D (A percentage control of from 20 to 39 is indicated by the letter D)”.

Q: What about the percentage control ([1]; 400 g/ha, 24 h) of the same compound?
A: The percentage control was “D (A percentage control of from 20 to 39 is indicated by the letter D)”.

Q: And the percentage control ([1]; 400 g/ha, 48 h)?
A: Its percentage control is “D (A percentage control of from 20 to 39 is indicated by the letter D)”.

Q: And the pest or weed control at 0.00625 % strength [2, 3]?
A: The pest or weed control at 0.00625 % strength was 1 to 19%.

Q: What about the pest or weed control at 0.0125 % strength [2, 3] of the same compound?
A: The pest or weed control at 0.0125 % strength was 1 to 19%.

Q: And the pest or weed control at 0.025 % strength [2, 3]?
A: The pest or weed control at 0.025 % strength was 1 to 19%.

Q: What about the pest or weed control at 0.05 % strength [2, 3] of the same compound?
A: Its pest or weed control at 0.05 % strength is 1 to 19%.

Q: And the pest or weed control at 0.1 % strength [2, 3]?
A: Its pest or weed control at 0.1 % strength is 1 to 19%.

Q: And the pest or weed control at 0.00625 % strength [2, 4]?
A: The pest or weed control at 0.00625 % strength was 1 to 19%.

Q: What about the pest or weed control at 0.0125 % strength [2, 4] of the same compound?
A: The pest or weed control at 0.0125 % strength was 1 to 19%.

Q: What about the pest or weed control at 0.025 % strength [2, 4] of the same compound?
A: The pest or weed control at 0.025 % strength was 1 to 19%.

Q: What about the pest or weed control at 0.05 % strength [2, 4] of the same compound?
A: Its pest or weed control at 0.05 % strength is 1 to 19%.

Q: What about the pest or weed control at 0.1 % strength [2, 4] of the same compound?
A: The pest or weed control at 0.1 % strength was 20 to 39%.

Q: And the percentage control (aphids, Myzus persicae; 25 g/ha, 24 h)?
A: The percentage control was “E (A percentage control of from 1 to 19 is indicated by the letter E)”.

Q: What about the percentage control (aphids, Myzus persicae; 25 g/ha, 48 h) of the same compound?
A: Its percentage control is “D (A percentage control of from 20 to 39 is indicated by the letter D)”.

Q: What about the percentage control (aphids, Myzus persicae; 50 g/ha, 24 h) of the same compound?
A: Its percentage control is 0%.

Q: What about the percentage control (aphids, Myzus persicae; 50 g/ha, 48 h) of the same compound?
A: Its percentage control is “C (A percentage control of from 40 to 59 is indicated by the letter C)”.

Q: What about the percentage control (aphids, Myzus persicae; 100 g/ha, 24 h) of the same compound?
A: The percentage control was “E (A percentage control of from 1 to 19 is indicated by the letter E)”.

Q: And the percentage control (aphids, Myzus persicae; 100 g/ha, 48 h)?
A: The percentage control was “B (A percentage control of from 60 to 79 is indicated by the letter B)”.

Q: What about the percentage control (aphids, Myzus persicae; 200 g/ha, 24 h) of the same compound?
A: Its percentage control is “E (A percentage control of from 1 to 19 is indicated by the letter E)”.

Q: And the percentage control (aphids, Myzus persicae; 200 g/ha, 48 h)?
A: Its percentage control is “C (A percentage control of from 40 to 59 is indicated by the letter C)”.

Q: What about the percentage control (aphids, Myzus persicae; 400 g/ha, 24 h) of the same compound?
A: The percentage control was “E (A percentage control of from 1 to 19 is indicated by the letter E)”.

Q: What about the percentage control (aphids, Myzus persicae; 400 g/ha, 48 h) of the same compound?
A: The percentage control was “B (A percentage control of from 60 to 79 is indicated by the letter B)”.

Q: What about the pest or weed control at 0.00625 % strength (aphids, Myzus persicae; [3]) of the same compound?
A: Its pest or weed control at 0.00625 % strength is 1 to 19%.

Q: What about the pest or weed control at 0.0125 % strength (aphids, Myzus persicae; [3]) of the same compound?
A: Its pest or weed control at 0.0125 % strength is 1 to 19%.

Q: And the pest or weed control at 0.025 % strength (aphids, Myzus persicae; [3])?
A: Its pest or weed control at 0.025 % strength is 1 to 19%.

Q: And the pest or weed control at 0.05 % strength (aphids, Myzus persicae; [3])?
A: The pest or weed control at 0.05 % strength was 1 to 19%.

Q: And the pest or weed control at 0.1 % strength (aphids, Myzus persicae; [3])?
A: Its pest or weed control at 0.1 % strength is 1 to 19%.

Q: And the pest or weed control at 0.00625 % strength (aphids, Myzus persicae; [4])?
A: Its pest or weed control at 0.00625 % strength is 1 to 19%.

Q: And the pest or weed control at 0.0125 % strength (aphids, Myzus persicae; [4])?
A: The pest or weed control at 0.0125 % strength was 1 to 19%.

Q: What about the pest or weed control at 0.025 % strength (aphids, Myzus persicae; [4]) of the same compound?
A: Its pest or weed control at 0.025 % strength is 20 to 39%.

Q: What about the pest or weed control at 0.05 % strength (aphids, Myzus persicae; [4]) of the same compound?
A: The pest or weed control at 0.05 % strength was 20 to 39%.

Q: What about the pest or weed control at 0.1 % strength (aphids, Myzus persicae; [4]) of the same compound?
A: The pest or weed control at 0.1 % strength was 20 to 39%.

Q: With `O=C1C=C(N(Cc2ccc(Cl)nc2)CC(F)F)CO1` [Compound 1, 3-[(6-Chloro-3-pyridyl)methyl-(2,2-difluoroethyl)amino]-2H-furan-5-one, reference compound] as the compound, how does the percentage control ([1]; 25 g/ha, 24 h) read?
A: Its percentage control is “D (A percentage control of from 20 to 39 is indicated by the letter D)”.

Q: And the percentage control ([1]; 25 g/ha, 48 h)?
A: The percentage control was “D (A percentage control of from 20 to 39 is indicated by the letter D)”.

Q: And the percentage control ([1]; 50 g/ha, 24 h)?
A: Its percentage control is “D (A percentage control of from 20 to 39 is indicated by the letter D)”.

Q: What about the percentage control ([1]; 50 g/ha, 48 h) of the same compound?
A: The percentage control was “D (A percentage control of from 20 to 39 is indicated by the letter D)”.

Q: And the percentage control ([1]; 100 g/ha, 24 h)?
A: Its percentage control is “E (A percentage control of from 1 to 19 is indicated by the letter E)”.

Q: What about the percentage control ([1]; 100 g/ha, 48 h) of the same compound?
A: Its percentage control is “D (A percentage control of from 20 to 39 is indicated by the letter D)”.

Q: And the percentage control ([1]; 200 g/ha, 24 h)?
A: Its percentage control is “D (A percentage control of from 20 to 39 is indicated by the letter D)”.

Q: What about the percentage control ([1]; 200 g/ha, 48 h) of the same compound?
A: Its percentage control is “D (A percentage control of from 20 to 39 is indicated by the letter D)”.

Q: What about the percentage control ([1]; 400 g/ha, 24 h) of the same compound?
A: The percentage control was “D (A percentage control of from 20 to 39 is indicated by the letter D)”.

Q: And the percentage control ([1]; 400 g/ha, 48 h)?
A: Its percentage control is “C (A percentage control of from 40 to 59 is indicated by the letter C)”.

Q: What about the percentage control (aphids, Myzus persicae; 25 g/ha, 24 h) of the same compound?
A: The percentage control was “E (A percentage control of from 1 to 19 is indicated by the letter E)”.

Q: And the percentage control (aphids, Myzus persicae; 25 g/ha, 48 h)?
A: The percentage control was “C (A percentage control of from 40 to 59 is indicated by the letter C)”.

Q: And the percentage control (aphids, Myzus persicae; 50 g/ha, 24 h)?
A: The percentage control was “D (A percentage control of from 20 to 39 is indicated by the letter D)”.

Q: What about the percentage control (aphids, Myzus persicae; 50 g/ha, 48 h) of the same compound?
A: Its percentage control is “A (A percentage control of from 80 to 100 is indicated by the letter A)”.

Q: And the percentage control (aphids, Myzus persicae; 100 g/ha, 24 h)?
A: The percentage control was “D (A percentage control of from 20 to 39 is indicated by the letter D)”.

Q: And the percentage control (aphids, Myzus persicae; 100 g/ha, 48 h)?
A: Its percentage control is “A (A percentage control of from 80 to 100 is indicated by the letter A)”.

Q: What about the percentage control (aphids, Myzus persicae; 200 g/ha, 24 h) of the same compound?
A: The percentage control was “C (A percentage control of from 40 to 59 is indicated by the letter C)”.

Q: And the percentage control (aphids, Myzus persicae; 200 g/ha, 48 h)?
A: The percentage control was “A (A percentage control of from 80 to 100 is indicated by the letter A)”.

Q: And the percentage control (aphids, Myzus persicae; 400 g/ha, 24 h)?
A: Its percentage control is “B (A percentage control of from 60 to 79 is indicated by the letter B)”.

Q: And the percentage control (aphids, Myzus persicae; 400 g/ha, 48 h)?
A: Its percentage control is “A (A percentage control of from 80 to 100 is indicated by the letter A)”.
